In patent US10016417B2, “Extended release formulation of a direct thrombin inhibitor” (Diakron Pharmaceuticals Inc., priority 2011, dated 2018):

Legend:
[1] = system: thrombin; experiment: Single dose crossover study: thrombin time (TT); format: in vivo, human; details: by 48 hrs; returned to within
Procedure: As used herein, the term “thrombin time (TT)” is the time required for plasma fibrinogen to form […], measured as the time for clot formation after exogenous thrombin is added to citrated plasma.
(§1) Four formulations having same composition as those described in Example 1 were dosed in a clinical study. […] (reported as the international normalized ratio [INR]); (i.e. PD parameters) and (3) assess the safety of DPOC-4088 in healthy volunteers.
(§2) Twelve subjects aged 21 to 45 (mean 32.9±8.55) years were enrolled, and were dosed in 4 periods after an overnight fast and had blood drawn for PK/PD determinations immediately prior to dosing and at specified time intervals for 48 hrs post-dosing. Each dosing period was separated by a ≥5-day washout. The observed PK and PD parameters are tabulated as Table 12.

[2] = Single dose crossover study: safety; format: in vivo, human
Procedure: as §1
as §2, with “washout.” for “washout. The observed PK and PD parameters are tabulated as Table 12.”

[3] = Multiple once-daily oral dosing study, Dose Step 1 100 mg q.d.: PK; format: in vivo, human; details: assuming dose linearity from Day 10 PK data
Procedure: (§3) Randomized, double-blind, placebo-controlled, stepwise study of the pharmacokinetics (PK), pharmacodynamics (PD), PK/PD characteristics and safety of multiple once-daily oral dosing of DPOC-4088 in healthy young male subjects
Preliminary Safety, PK, and PD Results Dose Step 1: 100 mg q.d.
Mean PK profiles of DPOC-4088 on Day 1 (first dose) and Day 10 (steady-state) are shown in FIGS. 14 a-b, respectively. • On Day 1, the mean PK profile was in line with observation from the previous single dose study (DPOC-001). • The degree of accumulation to steady-state levels was modest with a Day 10/Day 1 ratio for AUC24h of 1.4. […] Pharmacodynamics

[4] = Multiple once-daily dosing study: safety; format: in vivo, human
Excerpt: as §3
10 healthy volunteers participated in the first step of the multiple dose study (8 received DPOC-4088 and 2 received placebo). […] Minor AEs were reported. All AEs were grade 1, transient and were resolved. No bruising (except for puncture site hematomas) or petechiae were reported and the physical (including neurological) exams were normal in all volunteers. The lab exams were within normal limits or deviating without clinical significance.

[5] = target: T1, thrombin (Homo sapiens, UniProt P00734); experiment: Single dose crossover study: activated partial thromboplastin time (aPTT); format: in vivo; design: from tissue; host or cells: blood plasma of dosed subjects; details: 24 hrs post-dose
Procedure: (§4) As used herein, the term “activated partial thromboplastin time (aPTT)” is the period required for clot formation in recalcified blood plasma after contact activation and the addition of platelet substitutes. This measure is used to address the intrinsic and common pathways of coagulation.
as §1, §2

[6] = target: T1, thrombin; experiment: Single dose crossover study: prothrombin time PT (INR); format: in vivo; design: from tissue; host or cells: blood plasma of dosed subjects
Procedure: As used herein, the term “prothrombin time (PT)” is the rate at which prothrombin is converted to thrombin in citrated blood with added calcium. This is used to assess the extrinsic coagulation system of the blood
as §1, §2

[7] = target: T1, thrombin; experiment: Multiple once-daily dosing study: aPTT; format: in vivo; design: from tissue; host or cells: blood plasma of dosed subjects; details: at maximum levels, from regression analyses
Excerpt: as §4, §3
Mean maximum and minimum fold changes compared to baseline (Day 1, pre dose) in ECT, aPTT and PT on Day 10 are shown in Table 15. […] Minimum changes in ECT and aPTT on Day 10 were 1.12 and 1.10 respectively (Table 16). These values are lower than the target values defined in the protocol which were 2 and 1.5, respectively, at steady-state trough levels (see below). • Linear regression on the changes in ECT and aPTT versus DPOC-4088 plasma levels was performed. […] For ECT the changes would be 2.4 and 3.1 fold respectively. • For reference, for dabigatran, clinically relevant doses result in changes in aPTT of approximately 1.50 fold at trough levels and 2-fold at maximum levels. For ECT these changes are approximately 2-fold at trough levels and 3-fold at maximum levels.

[8] = target: T1, thrombin; experiment: Single dose crossover study: ecarin clotting time (ECT); format: in vivo; design: a prothrombin-thrombin intermediate which retains the full molecular weight of prothrombin; from tissue; host or cells: blood plasma of dosed subjects
[9] = target: T1, thrombin; experiment: Multiple once-daily dosing study: ECT; format: in vivo; design: a prothrombin-thrombin intermediate which retains the full molecular weight of prothrombin; from tissue; host or cells: blood plasma of dosed subjects; details: at maximum levels, from regression analyses

expected maximum DPOC-4088 levels ([3]; daily dose 200 mg): ~2000 nM | expected maximum DPOC-4088 levels ([3]; daily dose 300 mg): ~3000 nM | mean aPTT above the pre-dose aPTT ([5]; 100 mg): 12-15% | mean aPTT above the pre-dose aPTT ([5]; 200 mg): 21-24% | mean peak INR ([6]; single dose 100 mg formulations): 1.15-1.17 | mean peak INR ([6]; single dose 200 mg formulations): 1.28-1.30 | time at which mean peak INRs were reached ([6]; single doses of 100 or 200 mg): 4 h | aPTT expected fold change from baseline ([7]; Day 10, 200 mg once daily): 1.8 fold | aPTT expected fold change from baseline ([7]; Day 10, 300 mg once daily): 2.2 fold | mean 24 hr ECT above the pre-dose ECT ([8]; 100 mg dose): 21-23% | mean 24 hr ECT above the pre-dose ECT ([8]; 200 mg dose): 35-36% | ECT expected fold change from baseline ([9]; Day 10, 200 mg once daily): 2.4 fold | ECT expected fold change from baseline ([9]; Day 10, 300 mg once daily): 3.1 fold
Structure (SMILES): O=C(Cn1c(Cl)cnc(NCC(F)(F)c2ccccn2)c1=O)NCc1ncccc1F [DPOC-4088, 3-fluoro-2-pyridylmethyl-3-(2,2-difluoro-2-(2-pyridyl)ethylamino)-6-chloropyrazin-2-one-1-acetamide]
mean TT relative to pre-dosing TT [1]: 1-15% | safety and tolerability ([2]; 100 and 200 mg doses, both release formulations): safe and well-tolerated | Adverse events (AEs), subjects ([2]; most grade 1, unrelated or unlikely related): 9/12 | safety conclusion ([4]; 100 mg level, after 10 days of oral administration): very safe | treatment emergent serious adverse events (AEs) ([4]; 100 mg q.d., 8 on DPOC-4088): No treatment emergent serious adverse events
